According to patent US20240245694A1, “Tricyclic Compounds and their Uses” (Novartis AG, priority 2022, published 2024):

Assays:
[1] = biological target: WRN helicase (core helicase motif aa N517-P1238) (Homo sapiens (Human), UniProt Q14191); assay: WRN ATPase assay (ADP-Glo), DNA dependent ATP hydrolysis; type: biochemical; conditions: 3 hours pre-incubation, 300 micromolar ATP, FLAP26 ssDNA; geometric means of at least 2 determinations
Source text: An ATPase assay was set up to measure the DNA dependent ATP hydrolysis activity of WRN helicase. This assay was used also to assess the inhibition properties of compounds of the invention on DNA dependent WRN ATPase activity.
The core helicase motif of the WRN protein (aa N517-P1238) was produced for this assay (protein production as described above). A 45 oligonucleotide sequence called “FLAP26” as described by Brosh et al., 2009, DOI: 10.1074/jbc.M111446200 ([…]; SEQ ID NO: 2) was purchased from IDT (Integrated DNA Technologies, Leuven, Belgium) and used as single strand DNA substrate. The ADP-Glo assay kit (Promega, Madison, WI) allowing the quantification of ADP produced in ATP hydrolysis reactions was used for setting up this assay. Time course experiments were first performed in order to determine the best enzymatic assay conditions (including buffer conditions, reaction time and concentrations of protein, ATP and DNA substrates). A typical reaction consists of 10 nM WRN protein, 0.2 nM FLAP26, and 300 micromolar ATP in the following assay buffer: 30 mM Tris pH7.5, 2 mM MgCl2, 0.02% BSA, 50 mM NaCl, 0.1% pluronic F127 prepared in DNAse free water.
To evaluate the inhibition properties of compounds of the invention, serial dilutions were prepared in DMSO (10 half log dilutions from a 10 mM DMSO solution). 50 nanoliters of each concentration was pre-incubated for 3 hours in a 384 small volume assay plate (Greiner #784075) with 2.5 microliters of a 20 nM WRN helicase protein in assay buffer with 600 micromolar ATP. Control wells were included with a “high control” (no inhibition), containing DMSO with no test compound, and “low controls” (maximal inhibition), containing buffer without protein. The reaction was started by addition of 2.5 microliters of FLAP26 at 0.4 nM and incubated for 30 minutes at room temperature. The reaction was stopped with the addition of 5 microliters of the first ADP-Glo reagent and incubated for one hour to remove the excess amount of ATP. Afterwards, 10 microliters of ATP detection reagent was added and incubated for an additional hour before reading. Luminescence output was recorded using Tecan 1000 reader, with 5 minutes delay before reading. Each concentration of compound was tested in duplicates in the assay plate.
Data analysis was carried out using an in-house developed software (Novartis Helios software application, Novartis Institutes for BioMedical Research, unpublished) using the methods described by Formenko et al., 2006, DOI: 10.1016/j.cmpb.2006.01.008. Following normalization of activity values for the wells to % inhibition (% inhibition=[(high control-sample)/(high control-low control)]×100), IC50 fitting was carried out from the duplicate determinations present on each plate according to [4]. Data analysis can also be carried out using commercially available software designed to derive IC50 values using 4-parameter fits (e.g. GraphPad Prism, XL fit). The reported IC50 values are the geometrical means of at least 2 independent replicates.

SW48 cells = assay: Proliferation assay SW48 (CellTiterGlo, 96 hours); type: cell-based; conditions: Homo sapiens
Source text: (§1) The colon carcinoma cell lines SW48 (RRID: CVCL_1724), HCT 116 (RRID: CVCL_0291) and SNU-407 (RRID: CVCL_5058) were obtained from ATCC. The WRN-knockdown insensitive colon carcinoma cell line DLD-1 (RRID: CVCL_0248) was obtained from the Korean Cell Line Bank (KCLB), and used to generate a derivative in which the endogenous WRN gene copies were knocked out by CRISPR-mediated editing using standard CRISPR methods. The resulting cell line, DLD1-WRN-KO, was used to assess potential off-target compound effects.
(§2) SW48, SNU-407 and DLD1-WRN-KO cells were cultured in growth medium composed of RPMI-1640 (Amimed Cat #1-41F22-1), 2 mM L-Glutamine (Amimed Cat #5-10K50), 10 mM HEPES (Gibco Cat #15630-056), 1 mM sodium pyruvate (Amimed Cat #5-60F00-H), 1× Penicillin-Streptomycin (Amimed Cat #4-01F00-H) and 10% fetal calf serum (Amimed Cat #2-01F30-G, Lot #LB11566P). HCT 116 cells were cultured in growth medium composed of McCoys 5A (Amimed catalog #1-18F01-1), 2 mM L-Glutamine (Amimed Cat #5-10K50), 1× Penicillin-Streptomycin (Amimed Cat #4-01F00-H) and 10% fetal calf serum (Amimed Cat #2-01F30-G, Lot #LB11566P). All cells were maintained at 37° C. in a humidified 5% CO2 incubator.
(§3) Following filtration through a Steriflip-NY 20 μm filter (Millipore Cat #SCNY00020), trypsinized cells were seeded in 100 microliters growth medium at 2′000 (SW48) or 1′500 (SNU-407, DLD1-WRN-KO, HCT 116) cells/well into white, clear-bottom 96-well plates (Costar Cat #3903). Three replicate plates were prepared for each compound treatment condition. In addition, one plate (termed “day 0”) was prepared to quantify the number of viable cells at the time of compound addition. Following overnight incubation at 37° C. in a humidified 5% CO2 atmosphere, eight 3-fold serial dilutions of a given compound stock (obtained at a concentration of 10 mM in DMSO and stored at 4° C.) were dispensed directly into each of the triplicate assay plates using a HP 300D non-contact Digital Dispenser (TECAN). The final concentration of DMSO was normalized to 0.1% in all wells. 96 hours after compound addition, cellular ATP levels as a surrogate for cell viability was assessed following addition of 50 microliters CellTiterGlo (Promega Cat #G7573) reagent and luminescence quantification on a MPLEX multi-mode plate-reader (TECAN) following a 10 minute incubation at room temperature. The number of viable cells in the “day 0” plate were quantified identically on the day of compound addition.
(§4) For data analysis, the assay background signal that was determined in wells containing medium, but no cells, was subtracted from all other data points prior to further calculations. The extent of growth inhibition and potential cell kill was assessed by comparing the ATP levels (measured using CellTiterGlo, Promega) in compound-treated cells with those present at the time of compound addition. To this end, the following conditional concept was programmatically applied in HELIOS, an in-house software applying a multi-step decision tree to arrive at optimal concentration response curve fits (Gubler et al, SLAS DOI: 10.1177/2472555217752140) to calculate % growth (% G) for each compound-treated well: % G=(T−V0)/V0))*100 when T<V0, and % G=(T−V0)/(V−V0)))*100 when T>V0, where V0 is the viability level at time of compound addition, while V and T represent vehicle-control and compound-treated viability levels, respectively, at the end of the compound incubation. 100%, 0% and −100% signify absence of growth inhibition, growth stasis, and complete cell kill, respectively. Compound concentrations leading to half-maximal growth inhibition (G150) and residual cell viability at the highest tested compound concentration (Data (cmax), expressed in percent) were routinely calculated. Data analysis can also be carried out using commercially available software designed to derive IC50 values using 4-parameter fits (e.g. GraphPad Prism, XL fit). […]

DLD1-WRN-KO cells = assay: Proliferation assay DLD1-WRN-KO (CellTiterGlo, 96 hours), off-target effects; type: cell-based; conditions: Homo sapiens
Source text: as §1, §2, §3, §4

Sequence of WRN helicase (core helicase motif aa N517-P1238) (Q14191 517-1238): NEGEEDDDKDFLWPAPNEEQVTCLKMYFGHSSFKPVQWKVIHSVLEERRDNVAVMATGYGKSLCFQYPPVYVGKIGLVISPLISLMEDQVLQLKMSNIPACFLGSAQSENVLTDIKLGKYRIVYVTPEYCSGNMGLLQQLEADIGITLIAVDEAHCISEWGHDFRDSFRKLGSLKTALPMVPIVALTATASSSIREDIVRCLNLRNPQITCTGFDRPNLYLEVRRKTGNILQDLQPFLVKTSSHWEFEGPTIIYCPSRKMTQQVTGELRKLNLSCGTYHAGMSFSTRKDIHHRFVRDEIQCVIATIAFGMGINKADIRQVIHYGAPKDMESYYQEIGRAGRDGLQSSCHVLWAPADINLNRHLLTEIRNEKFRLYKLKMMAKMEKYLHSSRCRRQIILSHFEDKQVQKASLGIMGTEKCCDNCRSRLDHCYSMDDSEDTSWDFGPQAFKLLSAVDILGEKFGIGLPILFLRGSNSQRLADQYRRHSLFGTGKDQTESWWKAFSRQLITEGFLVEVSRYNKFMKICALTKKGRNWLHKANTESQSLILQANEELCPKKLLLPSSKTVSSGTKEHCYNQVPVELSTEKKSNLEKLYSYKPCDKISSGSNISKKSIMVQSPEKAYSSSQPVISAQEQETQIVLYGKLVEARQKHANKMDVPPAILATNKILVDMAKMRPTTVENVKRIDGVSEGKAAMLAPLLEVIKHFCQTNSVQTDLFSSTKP

SMILES: C[C@@H]1C[C@H](C(=O)Nc2ccc(C(F)(F)F)cc2Cl)n2c1c(N1CCN(C(=O)c3c(O)ccc4nccn34)CC1)c(=O)n1nc(C3=CCOCC3)nc21 [Example 9, (7R,9R)—N-(2-chloro-4-(trifluoromethyl)phenyl)-2-(3,6-dihydro-2H-pyran-4-yl)-6-(4-(6-hydroxyimidazo[1,2-a]pyridine-5-carbonyl)piperazin-1-yl)-7-methyl-5-oxo-5,7,8,9-tetrahydropyrrolo[1,2-c][1,2,4]triazolo[1,5-a]pyrimidine-9-carboxamide]
- IC50 [1]: 50 nM
- GI50 (SW48 cells): 60 nM
- GI50 (DLD1-WRN-KO cells): > 10000 nM

SMILES: Cc1ncnc(C(=O)N2CCN(c3c4n(c5nc(C6=CCOCC6)nn5c3=O)[C@H](C(=O)Nc3ccc(C(F)(F)F)cc3Cl)C[C@H]4C)CC2)c1O [Example 14D, (7R,9S)—N-(2-chloro-4-(trifluoromethyl)phenyl)-2-(3,6-dihydro-2H-pyran-4-yl)-6-(4-(5-hydroxy-6-methylpyrimidine-4-carbonyl)piperazin-1-yl)-7-methyl-5-oxo-5,7,8,9-tetrahydropyrrolo[1,2-c][1,2,4]triazolo[1,5-a]pyrimidine-9-carboxamide]
- IC50 [1]: 1000 nM
- GI50 (SW48 cells): 700 nM
- GI50 (DLD1-WRN-KO cells): > 10000 nM

SMILES: Cc1cc(F)c(O)c(C(=O)N2CCN(c3c4n(c5nc(N6CCOCC6)nn5c3=O)[C@H](C(=O)Nc3ccc(C(F)(F)F)cc3Cl)C[C@@H]4C)CC2)n1 [Example 3B, (7S,9S)—N-(2-chloro-4-(trifluoromethyl)phenyl)-6-(4-(4-fluoro-3-hydroxy-6-methylpicolinoyl)piperazin-1-yl)-7-methyl-2-morpholino-5-oxo-5,7,8,9-tetrahydropyrrolo[1,2-c][1,2,4]triazolo[1,5-a]pyrimidine-9-carboxamide]
- IC50 [1]: 6000 nM
- GI50 (SW48 cells): > 10000 nM
- GI50 (DLD1-WRN-KO cells): > 10000 nM

SMILES: Cc1ncnc(C(=O)N2CCN(c3c4n(c5nc(N6CCOCC6)nn5c3=O)[C@H](C(=O)Nc3ccc(C(F)(F)F)cc3Cl)C[C@H]4C)CC2)c1O [Example 2D, (7R,9S)—N-(2-chloro-4-(trifluoromethyl)phenyl)-6-(4-(5-hydroxy-6-methylpyrimidine-4-carbonyl)piperazin-1-yl)-7-methyl-2-morpholino-5-oxo-5,7,8,9-tetrahydropyrrolo[1,2-c][1,2,4]triazolo[1,5-a]pyrimidine-9-carboxamide]
- IC50 [1]: 24000 nM
- GI50 (SW48 cells): > 10000 nM
- GI50 (DLD1-WRN-KO cells): > 10000 nM

SMILES: C[C@@H]1C[C@H](C(=O)Nc2ccc(C(F)(F)F)cc2Cl)n2c1c(N1CCN(C(=O)c3nccc(F)c3O)CC1)c(=O)n1nc(C3=CCOCC3)nc21 [Example 6A, (7R,9R)—N-(2-chloro-4-(trifluoromethyl)phenyl)-2-(3,6-dihydro-2H-pyran-4-yl)-6-(4-(4-fluoro-3-hydroxypicolinoyl)piperazin-1-yl)-7-methyl-5-oxo-5,7,8,9-tetrahydropyrrolo[1,2-c][1,2,4]triazolo[1,5-a]pyrimidine-9-carboxamide]
- IC50 [1]: 20 nM
- GI50 (SW48 cells): 20 nM
- GI50 (DLD1-WRN-KO cells): > 10000 nM

SMILES: Cc1cc(C(F)(F)F)ccc1NC(=O)[C@H]1C[C@@H](C)c2c(N3CCN(C(=O)c4ncnc(C)c4O)CC3)c(=O)n3nc(C4=CCOCC4)nc3n21 [Example 17, (7R,9R)-2-(3,6-dihydro-2H-pyran-4-yl)-6-(4-(5-hydroxy-6-methylpyrimidine-4-carbonyl)piperazin-1-yl)-7-methyl-N-(2-methyl-4-(trifluoromethyl)phenyl)-5-oxo-5,7,8,9-tetrahydropyrrolo[1,2-c][1,2,4]triazolo[1,5-a]pyrimidine-9-carboxamide]
- IC50 [1]: 60 nM
- GI50 (SW48 cells): 20 nM
- GI50 (DLD1-WRN-KO cells): > 10000 nM

SMILES: Cc1ncnc(C(=O)N2CCN(c3c4n(c5nc(C6=CC(=O)OCC6)nn5c3=O)[C@@H](C(=O)Nc3ccc(C(F)(F)F)cc3Cl)C[C@H]4C)[C@H]3CC[C@@H]32)c1O [Example 25, (7R,9R)—N-(2-chloro-4-(trifluoromethyl)phenyl)-6-((1S,6S)-5-(5-hydroxy-6-methylpyrimidine-4-carbonyl)-2,5-diazabicyclo[4.2.0]octan-2-yl)-7-methyl-5-oxo-2-(6-oxo-3,6-dihydro-2H-pyran-4-yl)-5,7,8,9-tetrahydropyrrolo[1,2-c][1,2,4]triazolo[1,5-a]pyrimidine-9-carboxamide]
- GI50 (SW48 cells): 10 nM
- GI50 (DLD1-WRN-KO cells): > 10000 nM

SMILES: CC(=O)N1CCN(c2c3n(c4nc(-c5ccccc5)nn4c2=O)[C@H](C(=O)Nc2ccc(C(F)(F)F)cc2)CC3)CC1 [Example 22B, (S)-6-(4-acetylpiperazin-1-yl)-5-oxo-2-phenyl-N-(4-(trifluoromethyl)phenyl)-5,7,8,9-tetrahydropyrrolo[1,2-c][1,2,4]triazolo[1,5-a]pyrimidine-9-carboxamide]
- IC50 [1]: > 100000 nM

SMILES: Cc1cc(C(F)(F)F)ccc1NC(=O)[C@@H]1CCc2c(N3CCN(C(=O)c4nccc(Cl)c4O)CC3)c(=O)n3nc(C4=CCOCC4)nc3n21 [Example 19B, (S)-6-(4-(4-chloro-3-hydroxypicolinoyl)piperazin-1-yl)-2-(3,6-dihydro-2H-pyran-4-yl)-N-(2-methyl-4-(trifluoromethyl)phenyl)-5-oxo-5,7,8,9-tetrahydropyrrolo[1,2-c][1,2,4]triazolo[1,5-a]pyrimidine-9-carboxamide]
- IC50 [1]: 44000 nM
